pEC50: −log10 of the molar value.
system: RF strain of HIV-1; assay: HIV-1 cell protection assay (XTT dye reduction); assay type: cell-based; details: CEM-SS cells infected with HIV-1 RF, six days, XTT formazan; read-out: EC50
Protocol: Example 61: HIV-1 Cell Protection Assay
The antiviral activities of potential modulator compounds (test compounds) were determined in HIV-1 cell protection assays using the RF strain of HIV-1, CEM-SS cells, and the XTT dye reduction method (Weislow, O.S. et al., J. Natl. Cancer Inst. 81: 577-586 (1989)). Subject cells were infected with HIV-1 RF virus at an moi of 0.025 to 0.819 or mock infected with medium only and added at 2 x 10^4 cells per well into 96 well plates containing half-log dilutions of test compounds. Six days later, 50 µl of XTT solution (1 mg/ml XTT tetrazolium and […] phenazine methosulfate) were added to the wells and the plates were reincubated for four hours. Viability, as determined by the amount of XTT formazan produced, was quantified spectrophotometrically by absorbance at 450 nm.
Data from CPE assays were expressed as the percent of formazan produced in compound-treated cells compared to formazan produced in wells of uninfected, compound-free cells. […] The therapeutic index was calculated by dividing the cytotoxicity (CC50) by the antiviral activity (EC50).

Row | SMILES | pEC50
1 | O=C1c2ncc3c(ccn3Cc3ccc(F)cc3)c2CCCN1O [Example 3, 3-(4-Fluorobenzyl)-7-hydroxy-7,8,9,1 0-tetrahydropyrrolo[3',2':4,5]pyrido[2,3-c]azepin-6(3H)-one] | 7.54

same assay, conditions: Human immunodeficiency virus 1, CEM-SS, 144 h

Row | SMILES | pEC50
2 | O=C1c2ncc3c(ccn3Cc3ccc(F)cc3)c2CCN1O [Example 2, 3-(4-Fluorobenzyl)-7-hydroxy-3,7,8,9-tetrahydro-6H-pyrrolo[2,3-c]-1,7-naphthyridin-6-one] | 9.22
3 | O=C(c1cn(Cc2ccc(F)cc2)c2cnc3c(=O)n(O)ccc3c12)N1CCCC1 [Example 26, 3-(4-fluorobenzyl)-7-hydroxy-1-(pyrrolidin-1-ylcarbonyl)-3,7-dihydro-6H-pyrrolo[2,3-c]-1,7-naphthyridin-6-one] | 8.30
4 | CC(=O)N1CCN(C(=O)c2cn(Cc3ccc(F)cc3)c3cnc4c(=O)n(O)ccc4c23)CC1 [Example 27, 1-[(4-acetylpiperazin-1-yl)carbonyl]-3-(4-fluorobenzyl)-7-hydroxy-3,7-dihydro-6H-pyrrolo[2,3-c]-1,7-naphthyridin-6-one] | 7.72
5 | O=C(NCCc1cnccn1)c1cn(Cc2ccc(F)cc2)c2cnc3c(=O)n(O)ccc3c12 [Example 28, 3-(4-fluorobenzyl)-7-hydroxy-6-oxo-N-(2-pyrazin-2-ylethyl)-6,7-dihydro-3H-pyrrolo[2,3-c]-1,7-naphthyridine-1-carboxamide] | 7.62
6 | O=C(NCc1ccccn1)c1cn(Cc2ccc(F)cc2)c2cnc3c(=O)n(O)ccc3c12 [Example 29, 3-(4-fluorobenzyl)-7-hydroxy-6-oxo-N-(pyridin-2-ylmethyl)-6,7-dihydro-3H-pyrrolo[2,3-c]-1,7-naphthyridine-1-carboxamide] | 7.46
7 | O=C(NCC(F)(F)F)c1cn(Cc2ccc(F)cc2)c2cnc3c(=O)n(O)ccc3c12 [Example 30, 3-(4-fluorobenzyl)-7-hydroxy-6-oxo-N-(2,2,2-trifluoroethyl)-6,7-dihydro-3H-pyrrolo[2,3-c]-1,7-naphthyridine-1-carboxamide] | 7.89

same assay, conditions: Human immunodeficiency virus 1, CEM-SS, 144 h, CEM-SS cells infected with HIV-1 RF, six days, XTT formazan; read-out: EC50

Row | SMILES | pEC50
8 | O=c1c2ncc3c(ccn3Cc3ccc(F)cc3)c2ccn1O [Example 1, 3-(4-Fluorobenzyl)-7-hydroxy-3,7-dihydro-6H-pyrrolo[2,3-c]-1,7-naphthyridin-6-one] | 9.40
9 | CN(C)Cc1cn(Cc2ccc(F)cc2)c2cnc3c(=O)n(O)ccc3c12 [Example 4, 1-[(dimethylamino)methyl]-3-(4-fluorobenzyl)-7-hydroxy-3,7-dihydro-6H-pyrrolo[2,3-c]-1,7-naphthyridin-6-one] | 8.15
10 | NC(=O)[C@@H]1CCCN1Cc1cn(Cc2ccc(F)cc2)c2cnc3c(=O)n(O)ccc3c12 [Example 5, 1-{[3-(4-fluorobenzyl)-7-hydroxy-6-oxo-6,7-dihydro-3H-pyrrolo[2,3-c]-1,7-naphthyridin-1-yl]methyl}-L-prolinamide] | 7.42
11 | O=C1CN(Cc2cn(Cc3ccc(F)cc3)c3cnc4c(=O)n(O)ccc4c23)CCN1 [Example 6, 3-(4-fluorobenzyl)-7-hydroxy-1-[(3-oxopiperazin-1-yl)methyl]-3,7-dihydro-6H-pyrrolo[2,3-c]-1,7-naphthyridin-6-one] | 7.92
12 | CN1CCN(Cc2cn(Cc3ccc(F)cc3)c3cnc4c(=O)n(O)ccc4c23)CC1 [Example 7, 3-(4-fluorobenzyl)-7-hydroxy-1-[(4-methylpiperazin-1-yl)methyl]-3,7-dihydro-6H-pyrrolo[2,3-c]-1 ,7-naphthyridin-6-one] | 8.10
13 | CCN1CCN(Cc2cn(Cc3ccc(F)cc3)c3cnc4c(=O)n(O)ccc4c23)CC1 [Example 8, 1-[(4-ethylpiperazin-1-yl)methyl]-3-(4-fluorobenzyl)-7-hydroxy-3,7-dihydro-6H-pyrrolo[2,3-c]-1,7-naphthyridin-6-one] | 7.96
14 | O=c1c2ncc3c(c(CN4CCc5ccccc5C4)cn3Cc3ccc(F)cc3)c2ccn1O [Example 10, 1-(3,4-dihydroisoquinolin-2(1H)-ylmethyl)-3-(4-fluorobenzyl)-7-hydroxy-3,7-dihydro-6H-pyrrolo[2,3-c]-1,7-naphthyridin-6-one] | 9.39
15 | CCCCCN(C)Cc1cn(Cc2ccc(F)cc2)c2cnc3c(=O)n(O)ccc3c12 [Example 11, 3-(4-fluorobenzyl)-7-hydroxy-1-{[methyl(pentyl)amino]methyl}-3,7-dihydro-6H-pyrrolo[2,3-c]-1,7-naphthyridin-6-one] | 8.52
16 | NC(=O)[C@H]1CCCN1Cc1cn(Cc2ccc(F)cc2)c2cnc3c(=O)n(O)ccc3c12 [Example 12, 1-{[3-(4-fluorobenzyl)-7-hydroxy-6-oxo-6,7-dihydro-3H-pyrrolo[2,3-c]-1,7-naphthyridin-1-yl]methyl}-D-prolinamide] | 8.40
17 | O=C1NCCC12CCN(Cc1cn(Cc3ccc(F)cc3)c3cnc4c(=O)n(O)ccc4c13)CC2 [Example 13, 3-(4-fluorobenzyl)-7-hydroxy-1-[(1-oxo-2,8-diazaspiro[4.5]dec-8-yl)methyl]-3,7-dihydro-6H-pyrrolo[2,3-c]-1,7-naphthyridin-6-one] | 7.89
18 | CCN(Cc1cn(Cc2ccc(F)cc2)c2cnc3c(=O)n(O)ccc3c12)C1CCCCC1 [Example 14, 1-{[cyclohexyl(ethyl)amino]methyl}-3-(4-fluorobenzyl)-7-hydroxy-3,7-dihydro-6H-pyrrolo[2,3-c]-1,7-naphthyridin-6-one] | 8.10
19 | O=C(CN1CCN(Cc2cn(Cc3ccc(F)cc3)c3cnc4c(=O)n(O)ccc4c23)CC1)N1CCCC1 [Example 15, 3-(4-fluorobenzyl)-7-hydroxy-1-{[4-(2-oxo-2-pyrrolidin-1-ylethyl)piperazin-1-yl]methyl}-3,7-dihydro-6H-pyrrolo[2,3-c]-1,7-naphthyridin-6-one] | 7.41
20 | CN(CCc1ccccn1)Cc1cn(Cc2ccc(F)cc2)c2cnc3c(=O)n(O)ccc3c12 [Example 16, 3-(4-fluorobenzyl)-7-hydroxy-1-{[methyl(2-pyridin-2-ylethyl)amino]methyl}-3,7-dihydro-6H-pyrrolo[2,3-c]-1,7-naphthyridin-6-one] | 8.15
21 | O=C1CCCN1CC1(O)CCN(Cc2cn(Cc3ccc(F)cc3)c3cnc4c(=O)n(O)ccc4c23)CC1 [Example 18, 3-(4-fluorobenzyl)-7-hydroxy-1-({4-hydroxy-4-[(2-oxopyrrolidin-1-yl)methyl]piperidin-1-yl}methyl)-3,7-dihydro-6H-pyrrolo[2,3-c]-1,7-naphthyridin-6-one] | 7.17
22 | O=C1CCN(Cc2cn(Cc3ccc(F)cc3)c3cnc4c(=O)n(O)ccc4c23)CCN1 [Example 19, 3-(4-fluorobenzyl)-7-hydroxy-1-[(5-oxo-1,4-diazepan-1-yl)methyl]-3,7-dihydro-6H-pyrrolo[2,3-c]-1,7-naphthyridin-6-one] | 7.82
23 | NC(=O)[C@@H]1CCCN1S(=O)(=O)c1cn(Cc2ccc(F)cc2)c2cnc3c(=O)n(O)ccc3c12 [Example 20, 1-{[3-(4-fluorobenzyl)-7-hydroxy-6-oxo-6,7-dihydro-3H-pyrrolo[2,3-c]-1,7-naphthyridin-1-yl]sulfonyl}-L-prolinamide] | 6.41
24 | O=c1c2ncc3c(c(S(=O)(=O)NCCc4c[nH]c5ccccc45)cn3Cc3ccc(F)cc3)c2ccn1O [Example 21, 3-(4-fluorobenzyl)-7-hydroxy-N-[2-(1 H-indol-3-yl)ethyl]-6-oxo-6,7-dihydro-3H-pyrrolo[2,3-c]-1,7-naphthyridine-1-sulfonamide] | 6.32
25 | O=C1CN(S(=O)(=O)c2cn(Cc3ccc(F)cc3)c3cnc4c(=O)n(O)ccc4c23)CCN1 [Example 22, 3-(4-fluorobenzyl)-7-hydroxy-1-[(3-oxopiperazin-1-yl)sulfonyl]-3,7-dihydro-6H-pyrrolo[2,3-c]-1,7-naphthyridin-6-one] | 7.35
26 | CN(C)S(=O)(=O)c1cn(Cc2ccc(F)cc2)c2cnc3c(=O)n(O)ccc3c12 [Example 23, 3-(4-fluorobenzyl)-7-hydroxy-N,N-dimethyl-6-oxo-6,7-dihydro-3H-pyrrolo[2,3-c]-1,7-naphthyridine-1-sulfonamide] | 8.40
27 | O=c1c2ncc3c(c(S(=O)(=O)NCC(F)(F)F)cn3Cc3ccc(F)cc3)c2ccn1O [Example 24, 3-(4-fluorobenzyl)-7-hydroxy-6-oxo-N-(2,2,2-trifluoroethyl)-6,7-dihydro-3H-pyrrolo[2,3-c]-1,7-naphthyridine-1-sulfonamide] | 7.66
28 | O=c1c2ncc3c(c(S(=O)(=O)NCc4ccc(F)cc4)cn3Cc3ccc(F)cc3)c2ccn1O [Example 25, N,3-bis(4-fluorobenzyl)-7-hydroxy-6-oxo-6,7-dihydro-3H-pyrrolo[2,3-c]-1,7-naphthyridine-1-sulfonamide] | 6.80
29 | CC(C)(C)OC(=O)N1CCC(COCc2cn(Cc3ccc(F)cc3)c3cnc4c(=O)n(O)ccc4c23)CC1 [Example 32, tert-butyl 4-({[3-(4-fluorobenzyl)-7-hydroxy-6-oxo-6,7-dihydro-3H-pyrrolo[2,3-c]-1,7-naphthyridin-1-yl]methoxy)methyl)pip eridine-1-carboxylate] | 8.22
30 | O=c1c2ncc3c(c(COCCc4ccccn4)cn3Cc3ccc(F)cc3)c2ccn1O [Example 33, 3-(4-fluorobenzyl)-7-hydroxy-1-[(2-pyridin-2-ylethoxy)methyl]-3,7-dihydro-6H-pyrrolo[2,3-c]-1,7-naphthyridin-6-one] | 8.52

Source: patent publication EP1873155A1, “Inhibitors of the HIV integrase enzyme” (PFIZER INC., priority 2004, dated 2005)
